Converted amounts (≈) assume the structure as drawn. “And” between values parts separate entries of the source, which are not always exact repeats. Equal entries are not always repeated.
Tests used:
Format in all cases: cell-based
[1] = system: Pseudomonas aeruginosa Pa01; test: MIC determination, strain Pa01; conditions: for MIC: read-out: MIC100
Description: (§1) The bacterial inoculum was established by the dilution method from actively-growing cultures in Mueller-Hinton (MH) broth, standardized with 0.5 McFarland turbidity standard as described in the CLSI method M26-A.
(§2) Both the bacterial inoculum and the antimicrobial agents, including the compounds structurally related to cysteamine, were added simultaneously to the plates. The plates were incubated at 37° C. for 24 h and the optical density was read at 625 nm on a microtitre plate reader (BioTek Powerwave XS, Winooski, USA). […]
(§3) A number of compounds related in chemical structure to cysteamine were examined for antimicrobial activity; cystamine (dihydrochloride salt), taurine and 2,3-dimercaptosuccinic acid. Other compounds chemically related to cysteamine are known, but are toxic, and are therefore of no utility in a drug of this nature.

[2] = system: Pseudomonas aeruginosa Pa14; test: MIC determination, strain Pa14; conditions: for MIC: read-out: MIC100
Description: as §1, §2, §3

[3] = system: Pseudomonas aeruginosa Pa058; test: MIC determination, strain Pa058; conditions: for MIC: read-out: MIC100
Description: as §1, §2, §3

[4] = system: Pseudomonas aeruginosa NH57388A; test: MIC determination, strain NH57388A; conditions: for MIC: read-out: MIC100
Description: as §1, §2, §3

[5] = system: Pseudomonas aeruginosa Pa01; test: FIC index of combinations with conventional antibiotics, strain Pa01; conditions: strain Pa01 (Col^R)
Description: as §1
(§4) Both the bacterial inoculum and the antimicrobial agents, including the compounds structurally related to cysteamine, were added simultaneously to the plates. The plates were incubated at 37° C. for 24 h and the optical density was read at 625 nm on a microtitre plate reader (BioTek Powerwave XS, Winooski, USA). The MIC was obtained as the lowest concentration of antimicrobial showing total inhibition of bacterial growth.
(§5) The FIC corresponds to an interaction coefficient indicating whether the combination of antimicrobial agents is synergistic, additive, antagonist or neutral. The FIC is determined by comparing the activity of an agent in combination (MIC of agent A+agent B) with the activity of the agent alone (MIC of agent A or agent B) as follow (Singh et al., 2000): FIC=MICA[combination]/MICA[alone]+MICB[combination]/MICB[alone]
(§6) Additive combinations of two antimicrobial agents are indicated by a FIC index of 1, whereas a FIC index<1 indicates synergistic combinations. Neutral combinations would give a FIC between 1 and 4, a FIC index higher than 4 indicates antagonist effects between the two antimicrobial agents.
(§7) The FIC was also calculated to assess the interaction of two antimicrobial agents in combination against bacterial samples.

[6] = system: Pseudomonas aeruginosa Pa14; test: FIC index of combinations with conventional antibiotics, strain Pa14; conditions: strain Pa14 (Col^R)
Description: as §1, §4, §5, §6, §7

[7] = system: Pseudomonas aeruginosa Pa058; test: FIC index of combinations with conventional antibiotics, strain Pa058; conditions: strain Pa058 (Col^R, Cip^R Tob^R)
Description: as §1, §4, §5, §6, §7

[8] = system: Pseudomonas aeruginosa Pa57388A; test: FIC index of combinations with conventional antibiotics, strain Pa57388A; conditions: strain Pa57388A (Col^R)
Description: as §1, §4, §5, §6, §7

[9] = system: Pseudomonas aeruginosa Pa57388D; test: FIC index of combinations with conventional antibiotics, strain Pa57388D; conditions: strain Pa57388D (Col^R, Gent^R)
Description: as §1, §4, §5, §6, §7

[10] = in combination with Ciprofloxacin

| MIC50 [1] | MIC90 [1] | MIC [1] | MIC50 [2] | MIC90 [2] | MIC [2] | MIC50 [3] | MIC90 [3] | MIC [3] | MIC50 [4] | MIC90 [4] | MIC [4] | Compound | further results |
| --- | --- | --- | --- | --- | --- | --- | --- | --- | --- | --- | --- | --- | --- |
| 250 to 1000 µg/mL (≈ 1.64 to 6.57 mM) | 1000 to 2000 µg/mL (≈ 6.57 to 13.1 mM) | 2000 µg/mL (≈ 13.1 mM) | 125 to 250 µg/mL (≈ 0.821 to 1.64 mM) | 1000 to 2000 µg/mL (≈ 6.57 to 13.1 mM) | 2000 µg/mL (≈ 13.1 mM) | 250 to 500 µg/mL (≈ 1.64 to 3.28 mM) | 1000 to 2000 µg/mL (≈ 6.57 to 13.1 mM) | 2000 µg/mL (≈ 13.1 mM) | 500 to 1000 µg/mL (≈ 3.28 to 6.57 mM) | 1000 to 2000 µg/mL (≈ 6.57 to 13.1 mM) | 2000 µg/mL (≈ 13.1 mM) | NCCSSCCN [Cystamine, cystamine] | – |
| – | – | – | – | – | – | – | – | – | – | – | – | CC(=O)N[C@@H](CS)C(=O)O [N-Acetyl Cysteine (NAC), N-Acetyl cysteine, reference compound] | FICI (Additive) Cip [5, 10]: 0.56 and 0.75; FICI (Additive) Tob ([5]; in combination with Tobramycin): 0.53 and 0.52 and 0.5 and 0.56; FICI (Additive) Cip [6, 10]: 0.56 and 0.75; FICI (Additive) Col ([6]; in combination with Colistin): 0.5 and 0.75; FICI (Additive) Gent ([6]; in combination with Gentamicin): 0.51 and 0.52; FICI (Additive) Tob ([6]; in combination with Tobramycin): 0.63 and 0.5 and 0.75; FICI (Additive) Cip [7, 10]: 0.56 and 0.75; FICI (Additive) Col ([7]; in combination with Colistin): 0.53; FICI (Additive) Gent ([7]; in combination with Gentamicin): 0.53; FICI (Additive) Tob ([7]; in combination with Tobramycin): 0.75 and 0.53 and 0.51; FICI (Additive) Cip [8, 10]: 0.63 and 0.5 and 0.56; FICI (Additive) Col ([8]; in combination with Colistin): 0.56 and 0.75 and 0.52; FICI (Additive) Gent ([8]; in combination with Gentamicin): 0.63; FICI (Additive) Tob ([8]; in combination with Tobramycin): 0.53; FICI (Additive) Cip [9, 10]: 0.53 and 0.75; FICI (Additive) Col ([9]; in combination with Colistin): 0.56 and 0.75 and 0.53 and 0.5 and 0.51; FICI (Additive) Tob ([9]; in combination with Tobramycin): 0.56 and 0.63; FICI (Synergy) Tob ([9]; in combination with Tobramycin): 0.25 and 0.31 |
| 1000 to 2000 µg/mL (≈ 5.49 to 11 mM) | > 2000 µg/mL | > 2000 µg/mL | 1000 to 2000 µg/mL (≈ 5.49 to 11 mM) | 1000 to 2000 µg/mL (≈ 5.49 to 11 mM) | > 2000 µg/mL | 500 to 2000 µg/mL (≈ 2.74 to 11 mM) | 1000 to 2000 µg/mL (≈ 5.49 to 11 mM) | 2000 µg/mL (≈ 11 mM) | 500 to 2000 µg/mL (≈ 2.74 to 11 mM) | 1000 to 2000 µg/mL (≈ 5.49 to 11 mM) | 2000 µg/mL (≈ 11 mM) | O=C(O)C(S)C(S)C(=O)O (stereo not drawn) [2,3-Dimercaptosuccinic Acid, 2,3-dimercaptosuccinic acid] | – |
| > 2000 µg/mL | > 2000 µg/mL | > 2000 µg/mL | > 2000 µg/mL | > 2000 µg/mL | > 2000 µg/mL | > 2000 µg/mL | > 2000 µg/mL | > 2000 µg/mL | > 2000 µg/mL | > 2000 µg/mL | > 2000 µg/mL | NCCS(=O)(=O)O [Taurine, taurine] | – |
